Test results as given in publication PMC9578396, “Intrinsic Antibacterial Activity of Xeruborbactam In Vitro: Assessing Spectrum and Mode of Action” (Antimicrobial Agents and Chemotherapy, 2022).
In brackets after ≈: the same amount, converted by molar mass. Read-outs that look alike come from different tables or passages of the source.

Tests used:
[1] = system: Enterococcus faecalis; experiment: MIC, Enterococcus faecalis; format: cell-based
Text: Bacterial isolates were subjected to broth microdilution susceptibility testing, performed according to Clinical and Laboratory Standards Institute (CLSI) methods ([46]), using panels prepared in-house. Meropenem was purchased from Sandoz, and all other antibiotics were from Sigma-Aldrich. Xeruborbactam was synthesized at Qpex Biopharma, San Diego, CA. Avibactam was purchased from eNovation Chemicals LLC, Bridgewater, NJ, USA; zidebactam was from MedKoo Biosciences, Inc., Morrisville, NC, and nacubactam was from Advanced ChemBlocks, Hayward, CA. Durlobactam was synthesized at Acme Bioscience, Palo Alto, CA, USA.

[2] = biological target: PBP3 (Klebsiella pneumoniae, UniProt A0A0H3GN85); experiment: Gel-based Bocillin FL competition PBP binding assay
Protocol: (§1) Ten milliliters of overnight bacterial culture was inoculated in 1 L of LB medium and grown to an OD600 of 0.7 to 0.9. The cell pellet was washed once with 50 mL of solution containing 100 mM Na-phosphate at pH 7.0 and 100 mM NaCl and resuspended in 10 mL of the same buffer with one tablet of EDTA-free mini-protease inhibitor and 10 mg of lysozyme. Cell suspensions were incubated for 45 min at 37°C, and then 200 μL of DNase I was added along with MgSO4 (to a final concentration of 10 mM), followed by three cycles of freeze-thawing (10 min and 20 min, respectively). Four cycles of sonication at maximum power were performed next, each cycle lasting for 30 s with 1 min on ice between cycles. The cell suspension was centrifuged at 12,000 × g for 10 min at 4°C. The supernatant was collected and centrifuged at 100,000 × g for 45 min at 4°C. The pellet was washed three times with 10 mL of 100 mM Na-phosphate, pH 7.0, by resuspension and subsequent centrifugation at 100,000 × g for 10 min at 4°C. The pellet was finally resuspended in 1.5 mL of 100 mM Na-phosphate, pH 7.0, and passed several times through a Dounce homogenizer (tight pestle). Membrane preparations were aliquoted and kept at −80°C.
(§2) Five microliters of total bacterial membrane preparation was mixed with 5 μL of a test compound at a desired concentration in 100 mM Na-phosphate buffer, pH 7.0. Incubation of bacterial membrane preparations with control beta-lactams was performed for 10 min at 30°C; xeruborbactam was incubated with membrane preparations for 1 h at 30°C. Five microliters of 150 μM Bocillin FL fluorescent probe (Thermo Fisher Scientific) was added, and the reaction mixture was incubated for an additional 10 min at 30°C in the case of beta-lactams or for 20 min on ice (0°C) in the case of xeruborbactam. We believe that the 0°C temperature is required to prevent displacement of xeruborbactam from its complex by the Bocillin probe. At the end of the incubation step, 15 μL of 2× SDS sample loading buffer was added, and the reaction mixture was incubated for 5 min at 95°C. Twenty-five microliters of the reaction mixture was then loaded on an 8% SDS Tris-glycine gel (Thermo Fisher Scientific). At the end of the run, the gel was briefly rinsed with water and fixed in 10% acetic acid, 40% methanol for 20 min. After an additional wash in water for 30 min, the gel was scanned on a Typhoon Trio+ Imager using a blue laser filter (excitation, 488 nm, and emission, 520 nm). Densitometry of the gel images was performed using ImageQuant software (Molecular Dynamics). IC50 values were calculated with Prism software (GraphPad).

[3] = biological target: PBP2 (Klebsiella pneumoniae, UniProt A6T696); experiment: as above
Protocol: as §1, §2

[4] = biological target: T1, PBP1b (Escherichia coli, UniProt P02919); experiment: as above
T1 construct: endogenous in cells; host or cells: Escherichia coli ECM5497 (MG1655), total membrane preparation
Protocol: as §1, §2

[5] = biological target: PBP1a (Klebsiella pneumoniae, UniProt A0A0H3GZF1); experiment: as above
Protocol: as §1, §2

[6] = biological target: PBP3 (Acinetobacter baumannii, UniProt A0ABX6CK25); experiment: as above
Protocol: as §1, §2

[7] = biological target: PBP1a (Acinetobacter baumannii, UniProt A0ABX6CK30); experiment: as above
Protocol: as §1, §2

[8] = biological target: T2, PBP1a (Escherichia coli, UniProt P02918); experiment: as above
T2 construct: endogenous in cells; host or cells: Escherichia coli ECM5497 (MG1655), total membrane preparation
Protocol: as §1, §2

[9] = system: A. baumannii strain ATCC 17978; experiment: Fluorescence microscopy, cellular morphology; format: cell-based, Acinetobacter baumannii; settings: xeruborbactam, meropenem 1× and 2× MIC; aztreonam 2× MIC; amdinocillin 2 μg/mL
Protocol: Single colonies of K. pneumoniae strain KPM1026a, A. baumannii strain ATCC 17978, and P. aeruginosa strain PAM1154 were picked from LB agar plates, inoculated in cation-adjusted Mueller-Hinton broth (CA-MHB), and incubated overnight at 30°C with rolling. Overnight cultures were diluted into fresh CA-MHB and incubated at 30°C, with rolling, until they reached an OD600 of ≈0.12 to 0.15 (equivalent to ~2 × 10^8 CFU/mL). Samples were then treated with compounds and incubated at 30°C, with rolling. After 1 or 2 h of treatment, cells were collected and stained with a dye mix containing FM4-64 (1 μg/mL), DAPI (4′,6-diamidino-2-phenylindole) (2 μg/mL), and SYTOX green (0.5 μM) (Molecular Probes, Invitrogen, or Thermo Fisher Scientific). Cells were transferred onto an agarose pad containing 1.2% agarose and 20% LB medium for microscopy. Microscopy was performed as previously described ([34]).

Chain of PBP2 (A6T696 entry or part of it): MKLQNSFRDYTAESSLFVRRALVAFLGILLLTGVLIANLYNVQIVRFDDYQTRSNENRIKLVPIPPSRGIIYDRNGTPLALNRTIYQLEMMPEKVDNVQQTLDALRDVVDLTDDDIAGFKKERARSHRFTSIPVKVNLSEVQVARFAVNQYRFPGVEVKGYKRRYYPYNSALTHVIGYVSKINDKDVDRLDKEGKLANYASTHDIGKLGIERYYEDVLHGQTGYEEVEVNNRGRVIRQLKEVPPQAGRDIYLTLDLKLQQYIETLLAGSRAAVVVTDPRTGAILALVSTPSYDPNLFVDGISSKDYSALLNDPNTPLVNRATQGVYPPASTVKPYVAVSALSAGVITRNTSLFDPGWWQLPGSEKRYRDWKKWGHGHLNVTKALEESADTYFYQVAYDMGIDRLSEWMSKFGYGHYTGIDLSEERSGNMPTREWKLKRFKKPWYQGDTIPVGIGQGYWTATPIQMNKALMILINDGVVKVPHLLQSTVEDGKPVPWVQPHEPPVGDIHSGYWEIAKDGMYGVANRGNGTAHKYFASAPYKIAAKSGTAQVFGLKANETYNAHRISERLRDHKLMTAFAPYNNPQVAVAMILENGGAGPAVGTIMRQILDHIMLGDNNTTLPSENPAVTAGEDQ
T1 sequence (P02919 whole entry): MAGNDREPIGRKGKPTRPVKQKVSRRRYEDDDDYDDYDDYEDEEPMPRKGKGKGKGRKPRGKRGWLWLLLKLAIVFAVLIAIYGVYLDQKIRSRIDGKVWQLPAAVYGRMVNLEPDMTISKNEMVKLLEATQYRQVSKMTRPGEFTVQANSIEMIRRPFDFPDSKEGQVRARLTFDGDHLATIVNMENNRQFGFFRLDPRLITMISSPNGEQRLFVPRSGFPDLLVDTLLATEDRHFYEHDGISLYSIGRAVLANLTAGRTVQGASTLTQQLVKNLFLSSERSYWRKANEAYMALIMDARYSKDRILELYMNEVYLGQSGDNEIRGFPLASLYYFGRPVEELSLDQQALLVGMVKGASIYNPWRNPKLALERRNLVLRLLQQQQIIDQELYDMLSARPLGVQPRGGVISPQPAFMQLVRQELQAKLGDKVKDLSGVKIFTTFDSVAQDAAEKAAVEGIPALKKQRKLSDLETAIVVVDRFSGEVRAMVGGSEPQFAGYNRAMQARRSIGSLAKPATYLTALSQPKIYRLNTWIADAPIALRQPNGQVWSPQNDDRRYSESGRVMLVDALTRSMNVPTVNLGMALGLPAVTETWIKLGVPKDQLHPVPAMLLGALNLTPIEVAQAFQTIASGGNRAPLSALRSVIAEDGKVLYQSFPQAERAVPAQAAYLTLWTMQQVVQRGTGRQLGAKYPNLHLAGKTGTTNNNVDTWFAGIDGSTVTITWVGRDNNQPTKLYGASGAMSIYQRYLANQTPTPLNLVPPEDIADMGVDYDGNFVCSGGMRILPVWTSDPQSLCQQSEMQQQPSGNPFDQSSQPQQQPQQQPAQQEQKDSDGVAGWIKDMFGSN
Chain of PBP1a (Klebsiella pneumoniae, UniProt A0A0H3GZF1) (A0A0H3GZF1 entry or part of it): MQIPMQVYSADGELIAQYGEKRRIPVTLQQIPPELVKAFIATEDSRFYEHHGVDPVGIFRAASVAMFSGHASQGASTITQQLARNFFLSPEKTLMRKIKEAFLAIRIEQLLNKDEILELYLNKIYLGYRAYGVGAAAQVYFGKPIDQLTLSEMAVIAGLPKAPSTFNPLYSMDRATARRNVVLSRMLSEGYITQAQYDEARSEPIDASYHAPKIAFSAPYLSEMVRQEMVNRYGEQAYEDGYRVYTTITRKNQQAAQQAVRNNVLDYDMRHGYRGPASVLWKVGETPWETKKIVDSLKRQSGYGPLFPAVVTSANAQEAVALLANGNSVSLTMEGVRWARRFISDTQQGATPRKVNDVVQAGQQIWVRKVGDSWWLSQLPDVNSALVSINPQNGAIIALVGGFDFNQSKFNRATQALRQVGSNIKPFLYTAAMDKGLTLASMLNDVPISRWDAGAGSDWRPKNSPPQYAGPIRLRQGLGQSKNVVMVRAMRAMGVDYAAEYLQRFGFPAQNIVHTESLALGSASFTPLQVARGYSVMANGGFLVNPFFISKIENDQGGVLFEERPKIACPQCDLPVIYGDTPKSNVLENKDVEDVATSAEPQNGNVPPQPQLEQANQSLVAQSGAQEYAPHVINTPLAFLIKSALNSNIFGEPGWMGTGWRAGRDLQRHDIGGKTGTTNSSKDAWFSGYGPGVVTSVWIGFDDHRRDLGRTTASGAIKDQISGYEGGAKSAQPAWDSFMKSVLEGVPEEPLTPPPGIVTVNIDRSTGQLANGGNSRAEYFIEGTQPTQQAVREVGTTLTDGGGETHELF
Chain of PBP3 (Klebsiella pneumoniae, UniProt A0A0H3GN85) (A0A0H3GN85 entry or part of it): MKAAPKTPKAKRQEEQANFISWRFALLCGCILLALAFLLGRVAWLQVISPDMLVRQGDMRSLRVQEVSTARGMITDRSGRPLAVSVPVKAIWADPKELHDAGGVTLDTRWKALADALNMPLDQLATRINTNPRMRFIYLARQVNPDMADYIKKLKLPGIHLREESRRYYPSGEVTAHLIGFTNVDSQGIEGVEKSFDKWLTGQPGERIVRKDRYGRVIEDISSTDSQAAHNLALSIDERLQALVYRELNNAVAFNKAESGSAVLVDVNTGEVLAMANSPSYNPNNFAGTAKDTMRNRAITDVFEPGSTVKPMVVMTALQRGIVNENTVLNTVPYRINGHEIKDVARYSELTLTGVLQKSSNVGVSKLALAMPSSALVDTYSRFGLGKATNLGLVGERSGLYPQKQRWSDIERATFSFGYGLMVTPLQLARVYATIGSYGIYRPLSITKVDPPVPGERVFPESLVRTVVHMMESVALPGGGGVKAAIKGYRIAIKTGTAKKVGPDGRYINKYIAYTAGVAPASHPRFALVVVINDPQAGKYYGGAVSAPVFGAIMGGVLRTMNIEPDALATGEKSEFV
T2 sequence (P02918 whole entry): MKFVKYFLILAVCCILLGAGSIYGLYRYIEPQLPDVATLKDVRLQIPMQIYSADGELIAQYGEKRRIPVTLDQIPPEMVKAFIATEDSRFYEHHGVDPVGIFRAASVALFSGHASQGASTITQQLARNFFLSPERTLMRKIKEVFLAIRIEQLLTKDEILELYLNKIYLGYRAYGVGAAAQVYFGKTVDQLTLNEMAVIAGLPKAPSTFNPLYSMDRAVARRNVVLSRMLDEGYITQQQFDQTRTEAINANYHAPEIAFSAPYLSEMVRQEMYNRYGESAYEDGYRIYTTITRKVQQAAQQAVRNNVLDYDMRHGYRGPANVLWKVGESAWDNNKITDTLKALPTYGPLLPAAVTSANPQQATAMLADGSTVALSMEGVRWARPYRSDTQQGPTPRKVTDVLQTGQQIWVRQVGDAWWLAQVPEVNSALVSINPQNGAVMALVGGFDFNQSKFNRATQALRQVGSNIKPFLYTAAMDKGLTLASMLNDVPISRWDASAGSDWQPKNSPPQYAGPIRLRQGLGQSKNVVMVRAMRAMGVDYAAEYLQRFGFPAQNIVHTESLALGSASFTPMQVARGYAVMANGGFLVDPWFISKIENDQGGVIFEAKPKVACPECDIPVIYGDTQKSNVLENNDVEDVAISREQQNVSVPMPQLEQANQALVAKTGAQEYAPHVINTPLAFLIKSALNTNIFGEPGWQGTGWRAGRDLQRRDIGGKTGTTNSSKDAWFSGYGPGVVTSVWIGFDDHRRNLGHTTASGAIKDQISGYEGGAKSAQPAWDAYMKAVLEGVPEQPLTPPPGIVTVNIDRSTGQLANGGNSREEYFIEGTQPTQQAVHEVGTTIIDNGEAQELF
Chain of PBP3 (Acinetobacter baumannii, UniProt A0ABX6CK25) (A0ABX6CK25 entry or part of it): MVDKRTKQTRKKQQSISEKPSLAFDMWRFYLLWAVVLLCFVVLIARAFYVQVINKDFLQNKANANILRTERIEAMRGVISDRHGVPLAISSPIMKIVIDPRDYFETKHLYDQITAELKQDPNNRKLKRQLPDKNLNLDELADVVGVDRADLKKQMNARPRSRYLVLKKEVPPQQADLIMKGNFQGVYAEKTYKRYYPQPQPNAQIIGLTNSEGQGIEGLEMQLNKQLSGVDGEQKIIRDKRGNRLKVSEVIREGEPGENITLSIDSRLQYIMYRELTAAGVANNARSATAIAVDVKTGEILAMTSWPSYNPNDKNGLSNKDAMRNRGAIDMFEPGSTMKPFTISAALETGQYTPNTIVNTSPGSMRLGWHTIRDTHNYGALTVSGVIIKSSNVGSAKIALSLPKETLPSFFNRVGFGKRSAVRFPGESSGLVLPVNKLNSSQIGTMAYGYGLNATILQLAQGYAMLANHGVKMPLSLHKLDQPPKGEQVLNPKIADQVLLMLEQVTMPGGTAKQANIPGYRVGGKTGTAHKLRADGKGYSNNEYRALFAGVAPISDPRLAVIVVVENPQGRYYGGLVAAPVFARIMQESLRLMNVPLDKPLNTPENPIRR

SMILES	MIC ([1]; efs003)	MIC ([1]; efs004)	MIC ([1]; efs005)	MIC ([1]; efs006)	MIC ([1]; efs007)	MIC ([1]; efs026)	MIC ([1]; efs071)	MIC ([1]; efs072)	MIC ([1]; efs073)	MIC ([1]; efs090)	MIC ([1]; efs091)	MIC ([1]; efs092)	MIC ([1]; efs093)	MIC ([1]; efs094)	MIC ([1]; efs095)	MIC ([1]; efs096)	cellular morphology [9]	also measured
C[C@@H](O)[C@H]1C(=O)N2C(C(=O)O)=C(S[C@@H]3CN[C@H](C(=O)N(C)C)C3)[C@H](C)[C@H]12 [Meropenem]	2 µg/mL (≈ 5.22 µM)	4 µg/mL (≈ 10.4 µM)	4 µg/mL (≈ 10.4 µM)	2 µg/mL (≈ 5.22 µM)	4 µg/mL (≈ 10.4 µM)	2 µg/mL (≈ 5.22 µM)	4 µg/mL (≈ 10.4 µM)	2 µg/mL (≈ 5.22 µM)	4 µg/mL (≈ 10.4 µM)	1 µg/mL (≈ 2.61 µM)	1 µg/mL (≈ 2.61 µM)	8 µg/mL (≈ 20.9 µM)	16 µg/mL (≈ 41.7 µM)	> 32 µg/mL	4 µg/mL (≈ 10.4 µM)	4 µg/mL (≈ 10.4 µM)	swelling and rounding but not elongation	IC50 ([2]; read-out: Relative binding IC50, PBP3; K. pneumoniae KPM1001 membranes; Bocillin FL step 0°C for xeruborbactam, 30°C for beta-lactams): 0.24 µM; IC50 [3]: 0.003 µM; IC50 [4]: 21.1 µM; IC50 ([5]; read-out: Relative binding IC50, PBP1a; K. pneumoniae KPM1001 membranes; Bocillin FL step 0°C for xeruborbactam, 30°C for beta-lactams): 6.6 µM; IC50 ([6]; read-out: Relative binding IC50, PBP3; A. baumannii ACM1320 membranes; Bocillin FL step 0°C for xeruborbactam, 30°C for beta-lactams): 0.19 µM; IC50 ([7]; read-out: Relative binding IC50, PBP1a; A. baumannii ACM1320 membranes; Bocillin FL step 0°C for xeruborbactam, 30°C for beta-lactams): 0.07 µM; IC50 [8]: 5.4 µM
O=C(O)c1c(F)ccc2c1OB(O)[C@@H]1C[C@H]21 [Xeruborbactam]	> 32 µg/mL	> 32 µg/mL	> 32 µg/mL	> 32 µg/mL	> 32 µg/mL	> 32 µg/mL	> 32 µg/mL	> 32 µg/mL	> 32 µg/mL	> 32 µg/mL	> 32 µg/mL	> 32 µg/mL	> 32 µg/mL	> 32 µg/mL	> 32 µg/mL	> 32 µg/mL	cell shape deformation, from coccobacilli to a football shape	MIC ([1]; all the E. faecalis strains, n = 16): > 32 µg/mL; IC50 ([2]; K. pneumoniae KPM1001 membranes; Bocillin FL step 0°C for xeruborbactam, 30°C for beta-lactams; read-out: Relative binding IC50, PBP3): 55 ± 8 µM; IC50 ([3]; K. pneumoniae KPM1001 membranes, Bocillin FL step 0°C for xeruborbactam, 30°C for beta-lactams, read-out: Relative binding IC50, PBP2): 51 ± 15 µM; IC50 ([4]; E. coli ECM5497 membranes, Bocillin FL step 0°C for xeruborbactam, 30°C for beta-lactams, read-out: Relative binding IC50, PBP1b): 56 ± 18 µM; IC50 ([5]; K. pneumoniae KPM1001 membranes; Bocillin FL step 0°C for xeruborbactam, 30°C for beta-lactams; read-out: Relative binding IC50, PBP1a): 41 ± 6 µM; IC50 ([6]; A. baumannii ACM1320 membranes; Bocillin FL step 0°C for xeruborbactam, 30°C for beta-lactams; read-out: Relative binding IC50, PBP3): 135 ± 40 µM; IC50 ([7]; A. baumannii ACM1320 membranes; Bocillin FL step 0°C for xeruborbactam, 30°C for beta-lactams; read-out: Relative binding IC50, PBP1a): 1.4 ± 0.5 µM; IC50 ([8]; E. coli ECM5497 membranes, Bocillin FL step 0°C for xeruborbactam, 30°C for beta-lactams, read-out: Relative binding IC50, PBP1a): 47 ± 13 µM
